# Measured values as given in ChEMBL document CHEMBL4118185, “Kakeromamide A, a new cyclic pentapeptide inducing astrocyte differentiation isolated from the marine cyanobacterium Moorea bouillonii” (Bioorg Med Chem Lett, 2018).
# The source made the active and inactive calls. No cut-off for these calls is given here.
# Tests used:
# HeLa = test: Cytotoxicity against human HeLa cells after 72 hrs by MTT assay; type: functional, cell-based
# P388 = test: Cytotoxicity against mouse P388 cells at 10 uM after 72 hrs by MTT assay; type: functional, cell-based
# Mus musculus [1] = species on record: Mus musculus; test: Induction of differentiation of mouse neuronal stem cells into astrocytes after 72 hrs by Hoechst 33342 staining based immunofluorescence assay; type: functional
# Mus musculus [2] = species on record: Mus musculus; test: Suppression of differentiation of mouse neuronal stem cells into neurons at 2.5 to 10 uM after 72 hrs by NeuO-Hoechst 33342 staining-based microscopic method; type: functional
# [3] = Cytotoxicity against mouse neuronal stem cells at 2.5 to 10 after 72 hrs; type: cell-based
smiles,measurement,setting,value
CCC[C@H]1NC(=O)c2csc(n2)[C@H](C(C)C)NC(=O)[C@H](Cc2ccc(OC)cc2)N(C)C(=O)[C@H](Cc2ccc(OC)cc2)N(C)C(=O)[C@H](C(C)C)NC(=O)[C@H]1C,IC50,HeLa,10 µM
same,Activity,P388,inactive
same,Activity,Mus musculus [1],Dose-dependent effect
same,Activity,Mus musculus [2],Active
same,Activity,[3],Non-Toxic
